How the values were obtained:
[1] = system: d-amphetamine-induced dopaminergic hyperactivity; experiment: inhibition of d-amphetamine-induced motor phenomena in mice (activograph); format: in vivo
Description: the administration of d-amphetamine, at a dose of 1 to 3 mg/kg I.P. in mice, releases the supervention of motor phenomena registered using an activograph.

[2] = system: dopaminergic inhibitory auto-receptors; experiment: motor depressant effects (hypokinesia) in mice; format: in vivo; conditions: all doses studied from 20 to 160 mg/kg I.P.
Excerpt: The motor depressant effects of the compound of Example 1 have been studied in mice.

[3] = system: conditioned avoidance response; experiment: conditioned avoidance response inhibition in the rat (shuttle box avoidance); format: in vivo, male WISTAR rats
Description: The method used is based on the works of COURVOISIER et al., Arch. Int. Pharmacodyn. 92, 305-361, (1953), and of JANSSEN et al., Arzneim. Forsch. 15, 104-117, (1965).
The experiments are carried out on groups of 10 to 20 male WISTAR rats weighing between 300 g and 400 g. Each animal is submitted to two day-sessions per week, one after treatment carried out on the substance studied at a given dose, 30 minutes before the session, the other following the administration of a solute of NaCl (0.154M)--I.P. route in both cases. The compound of Example 1 has been administered in solution in sterile bi-distilled water, at doses of 6.25, 12.5, 25, 50 and 75 mg/kg. I.P.
Piribedil chosen as reference product has been administered at the same doses and by the same route. This method is used to show the anti-psychotic activity of a substance. It is known that anti-psychotic agents inhibit the conditioned shunning response, without modifying the escape response following an electric shock (Unconditioned response).

[4] = system: hypersensitive post-synaptic dopaminergic receptors; experiment: rotations in rats with unilateral lesions of the nigro-neostriatal tract (Ungerstedt); format: in vivo, rat
Description: The central dopaminergic activity for the compounds of the present invention was determined, especially by measuring the rotations of the rat according to the method of Ungerstedt U., European Journal of Pharmacology, 5, (1968) 107-110. For the compounds of the present invention, administered at a dose of 25 mg/kg subcutaneously, up to 380 rotations were obtained in 45 minutes.
Experiments have also been carried out on rats with unilateral lesions of the nigro-neostriatal tract.
These lesions are produced by local micro-injection of 6-hydroxy dopamine into the black substance of the rat, according to U. Ungerstedt; Europ. J. Pharmacol. 5, 1968, 107-110 and Advances in Neurology, vol. 3, Raven Press., New York (1973).
This treatment leads to a degeneration of the dopaminergic neurons coming from the nigra-substantia, going towards the neostriatum.
Furthermore, following this denervation, the post-synaptic receptors situated above the pithed tract, i.e., above the synapse which leads to the pithed neuron, become hypersensitive to the pharmacological dopaminergic agents administered. This direct activation of hypersensitive dopaminergic receptors then produces the supervention of a motor rotation behaviour in treated rats.
When the left nigro-striatal tract is destroyed, the rotations occur towards the right, on the opposite side to the lesion. The experimental groups each contain from 5 to 6 animals.

[5] = system: dopaminergic inhibitory auto-receptors; experiment: electro-encephalogram / sleep in rats; format: in vivo
[6] = system: pre-synaptic dopaminergic receptors; experiment: hypokinesia in the normal animal, mice or rats; format: in vivo
[7] = system: dopaminergic post-synaptic receptors of the striatum; experiment: stereotyped movements in rats (Quinton and Halliwell scale); format: in vivo; conditions: for total stereotypy score in 3 hours: 6 observations; for total stereotypy score in 3 hours / total stereotypy score: groups of 8 rats; for stimulating activity on the dopaminergic post-synaptic receptors of the striatum: rats, from stereotypy scores
Description: The research for stereotyped movements, proof of the existence of a direct post-synaptic dopaminergic stimulating activity, has been carried out in rats using the scale described by R. M. QUINTON and H. HALLIWELL, Nature, 200, 1963, 178-179. The experiment lasts 3 hours, the animals are observed every 30 minutes. The groups are made up of 8 rats each, and the results are the total scores of the accumulated individual scores of the stereotypies observed during the experiment (6 observations).

## C1=COc2cc(CN3CCN(c4ncccn4)CC3)ccc2O1 [Example 1, 1-(benzodioxin-6-ylmethyl)-4-(pyrimidin-2-yl)piperazine]
[1]; 20 mg/kg compound against 1 mg/kg I.P. d-amphetamine
  antagonism of the effects of d-amphetamine: antagonise
[1]; 40 mg/kg compound against 3 mg/kg I.P. d-amphetamine
  antagonism of the effects of d-amphetamine: antagonise
[1]; joint administration with d-amphetamine 1 to 3 mg/kg I.P.
  inhibition of the motor phenomena due to d-amphetamine: inhibition of the motor phenomena due to the amphetamine
[2]
  hypokinesia in mice: provokes in mice a hypokinesia at all the doses studied
[3]; 6.25 mg/kg I.P.
  Crossings, % over 20: -3%
  Escape response, % in relation to control animals: -14%
  Escape response, % over 20: 1.5%
  Escape response, Number over 20: 0.30
  Shunning response, % in relation to control animals: +0.25%
  Shunning response, % over 20: 98.5%
  Shunning response, Number over 20: 19.7
[3]; 6.25 mg/kg I.P., * = P < 0.05
  Crossings, Number over 20: 20.6
[3]; 12.50 mg/kg I.P.
  Crossings, % over 20: -15%
  Escape response, % in relation to control animals: +71%
  Escape response, % over 20: 3%
  Escape response, Number over 20: 0.6
  Shunning response, % in relation to control animals: -1%
  Shunning response, % over 20: 97%
  Shunning response, Number over 20: 19.4
[3]; 12.50 mg/kg I.P., * = P < 0.05
  Crossings, Number over 20: 18.0
[3]; 25 mg/kg I.P.
  Crossings, % over 20: -9%
  Escape response, % in relation to control animals: +71%
  Escape response, % over 20: 3%
  Escape response, Number over 20: 0.6
  Shunning response, % in relation to control animals: -1%
  Shunning response, % over 20: 97%
  Shunning response, Number over 20: 19.4
[3]; 25 mg/kg I.P., * = P < 0.05
  Crossings, Number over 20: 19.2
[3]; 50 mg/kg I.P.
  Crossings, % change in relation to control animals: +8%
  Escape response, % in relation to control animals: +814%
  Escape response, % over 20: 16%
  Shunning response, % in relation to control animals: -15%
  Shunning response, % over 20: 84%
  diminution of the number of shunning responses: 15%
  increase of the escape responses: 800%
[3]; 50 mg/kg I.P., * = P < 0.05
  Crossings, Number over 20: 22.9
  Escape response, Number over 20: 3.2
  Shunning response, Number over 20: 16.8
[3]; 75 mg/kg I.P.
  Crossings, % change in relation to control animals: +63%
  Escape response, % in relation to control animals: +533%
  Escape response, % over 20: 9.5%
  Shunning response, % in relation to control animals: -8%
  Shunning response, % over 20: 90.5%
  diminution of the number of shunning responses: 8%
  increase of the escape responses: 500%
  increase of the number of spontaneous crossings: 63%
  mobility depressor, sedative, cataleptigenic effect: neither a mobility depressor effect, nor sedative effect, nor cataleptigenic effect
[3]; 75 mg/kg I.P., * = P < 0.05
  Crossings, Number over 20: 25.4
  Escape response, Number over 20: 1.9
  Shunning response, Number over 20: 18.1
[3]; I.P.
  conditioned and unconditioned responses: reduces the conditioned responses without diminishing the unconditioned escape responses
[4]; 12.5 mg/kg S.C.
  average number of rotations in 45 minutes: 182 rotations
[4]; 25 mg/kg S.C.
  average number of rotations in 45 minutes: 380 rotations
[4]; 50 mg/kg P.O.
  average number of rotations in 45 minutes: 543 rotations
[4]; right side, opposite side to the lesion
  rotations in the unilaterally pithed rat: numerous rotations
[5]
  central effects observed in the electro-encephalogram: central depressant effects
[5]; 30 mg/kg I.P.
  total sleep (slow sleep and paradoxal sleep), words: increase in total sleep
[5]; 30 mg/kg I.P., second hour following administration
  increase in total sleep: 100%
[6]
  hypokinesia in the normal animal: only provokes an hypokinesia
[7]; 80 mg/kg I.P. or S.C.
  stereotyped movements: very few stereotyped movements
[7]; 80 mg/kg I.P.
  total stereotypy score in 3 hours: 52
[7]; 80 mg/kg S.C.
  total stereotypy score in 3 hours: 49
[7]; normal rats
  stereotypy in normal rats: practically no sterotypy
[7]
  stimulating activity on the dopaminergic post-synaptic receptors of the striatum: no important stimulating activity

## c1cnc(N2CCN(Cc3ccc4c(c3)OCO4)CC2)nc1 [Piribedil, reference compound]
[3]; 6.25 mg/kg I.P.
  Crossings, % change in relation to control animals: +50%
  Escape response, % in relation to control animals: +50%
  Escape response, % over 20: 3%
  Escape response, Number over 20: 0.6
  Shunning response, % in relation to control animals: -1%
  Shunning response, % over 20: 97%
  Shunning response, Number over 20: 19.4
[3]; 6.25 mg/kg I.P., * = P < 0.05
  Crossings, Number over 20: 29.5
[3]; 12.50 mg/kg I.P.
  Crossings, % change in relation to control animals: +47%
  Escape response, % in relation to control animals: 0%
  Escape response, % over 20: 2%
  Escape response, Number over 20: 0.4
  Shunning response, % in relation to control animals: 0%
  Shunning response, % over 20: 98%
  Shunning response, Number over 20: 19.1
[3]; 12.50 mg/kg I.P., * = P < 0.05
  Crossings, Number over 20: 28.9
[3]; 25 mg/kg I.P.
  Crossings, % change in relation to control animals: +148%
  Escape response, % in relation to control animals: +149%
  Escape response, % over 20: 5%
  Escape response, Number over 20: 1
  Shunning response, % in relation to control animals: -3%
  Shunning response, % over 20: 95%
  Shunning response, Number over 20: 19
[3]; 25 mg/kg I.P., * = P < 0.05
  Crossings, Number over 20: 48.9
[3]; 50 mg/kg I.P.
  Crossings, % change in relation to control animals: +118%
  Escape response, % in relation to control animals: +50%
  Escape response, % over 20: 3%
  Shunning response, % in relation to control animals: -1%
  Shunning response, % over 20: 97%
[3]; 50 mg/kg I.P., * = P < 0.05
  Crossings, Number over 20: 42.9
  Escape response, Number over 20: 0.6
  Shunning response, Number over 20: 19.4
[3]; 75 mg/kg I.P.
  Crossings, % change in relation to control animals: +115%
  Escape response, % in relation to control animals: +633%
  Escape response, % over 20: 11%
  Shunning response, % in relation to control animals: -10%
  Shunning response, % over 20: 89%
[3]; 75 mg/kg I.P., * = P < 0.05
  Crossings, Number over 20: 33.5
  Escape response, Number over 20: 2.2
  Shunning response, Number over 20: 17.8
[3]; 6.25 to 75 mg/kg I.P.
  effect on the shunning responses: no agonistic effect on the shunning responses
[4]; 50 mg/kg P.O.
  average number of rotations in 45 minutes: 256 rotations
[5]; E.E.G., same dose (30 mg/kg I.P.)
  reduction of total sleep: 50%
[7]; 20 mg/kg I.P.
  total stereotypy score: 145
[7]; 40 mg/kg I.P.
  total stereotypy score: 246
[7]
  stimulating activity on the dopaminergic post-synaptic receptors of the striatum: stimulates these receptors

Reference: US4613601A, “(1-benzodioxin-6-ylmethyl)-4-substituted piperazines having antipsychotic activity” (Adir, S.A.R.L., priority 1982, dated 1986)
